Test results published in patent US20100273789A1, “AMINOACYL PRODRUGS” (BAYER SCHERING PHARMA AKTIENGESELLSCHAFT, priority 2007, published 2010).

Experiment: Determination of the solubility
Type: physicochemical
Conditions: in water and physiological media
Protocol: The test substance is suspended in water or dilute hydrochloric acid (pH 4). This suspension is shaken at room temperature for 24 h. After ultracentrifugation at 224 000 g for 30 min, the supernatant is diluted with DMSO and analyzed by HPLC. A two-point calibration plot of the test compound in DMSO is used for quantification.
Agilent 1100 with DAD (G1315A), quat. pump (G1311A), autosampler CTC HTS PAL, degasser (G1322A) and column thermostat (G1316A); column: Zorbax Extend-C18 3.5μ; temperature: 40° C.; mobile phase A: water+5 ml of perchloric acid/liter, mobile phase B: acetonitrile; flow rate: 0.7 ml/min; gradient: 0-0.5 min 98% A, 2% B; ramp 0.5-4.5 min 10% A, 90% B; 4.5-6 min 10% A, 90% B; ramp 6.5-6.7 min 98% A, 2% B; 6.7-7.5 min 98% A, 2% B.

solubility: limited solubility
SMILES: O=C(NC[C@H]1CN(c2ccc(N3CCOCC3=O)cc2F)C(=O)O1)c1ccc(Cl)s1 [compound (A), 5-Chloro-N-({(5S)-3-[2-fluoro-4-(3-oxomorpholin-4-yl)phenyl]-2-oxo-1,3-oxazolidin-5-yl}methyl)thiophene-2-carboxamide]
